Read-outs that look alike come from different tables or passages of the source. Blank lines part the entries; values can stand above or below the compound they belong to.
Assays:
[1] = target: T1, hAR subtype A2A in HEK293 cells (Homo sapiens, UniProt P29274); assay: Functional cAMP assay, A2AAR; assay type: cell-based; details: for Emax at 10 µM: HEK293, stimulation of cAMP production at 10 μM, n=3, read-out: Maximum efficacy A2A (% activation); for A2AAR agonist activity in words: Gs-mediated cAMP production
T1 construct: expressed in transfected cells

[2] = target: T2, human A3AR (Homo sapiens, UniProt P0DMS8); parameters: expressed in transfected cells; method as in Rodriguez et al.3; details: ref Rodriguez et al.3; cited from earlier work
T2 sequence (P0DMS8 1-318): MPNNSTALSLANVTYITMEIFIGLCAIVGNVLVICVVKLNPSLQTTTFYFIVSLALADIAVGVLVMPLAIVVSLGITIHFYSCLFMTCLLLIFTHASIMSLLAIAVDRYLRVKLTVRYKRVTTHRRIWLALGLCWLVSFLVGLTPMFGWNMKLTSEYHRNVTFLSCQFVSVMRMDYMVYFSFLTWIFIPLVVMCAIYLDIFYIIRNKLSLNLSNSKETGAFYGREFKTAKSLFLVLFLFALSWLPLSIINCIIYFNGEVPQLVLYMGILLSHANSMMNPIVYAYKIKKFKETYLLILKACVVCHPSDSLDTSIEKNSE

[3] = target: T3, human A2AAR (Homo sapiens, UniProt P29274); parameters: expressed in transfected cells; details: cited from earlier work
[4] = target: T4, human A2BAR (Homo sapiens, UniProt P29275); assay: Radioligand binding assay, A2BAR; details: read-out: % Inhibition at 10µM A2B
T4 sequence (P29275 1-332): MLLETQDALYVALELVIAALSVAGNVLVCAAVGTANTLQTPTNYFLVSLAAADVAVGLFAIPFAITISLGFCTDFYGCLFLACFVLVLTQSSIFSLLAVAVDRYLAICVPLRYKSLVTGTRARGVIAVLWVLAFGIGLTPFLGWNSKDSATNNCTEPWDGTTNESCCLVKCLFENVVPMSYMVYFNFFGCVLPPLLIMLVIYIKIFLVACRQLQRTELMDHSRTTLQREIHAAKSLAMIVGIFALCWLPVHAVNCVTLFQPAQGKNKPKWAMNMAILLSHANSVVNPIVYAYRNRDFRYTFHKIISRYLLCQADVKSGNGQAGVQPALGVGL

[5] = target: T2, human A3AR; assay: Radioligand binding assay, A3AR
[6] = target: T5, human A1AR (Homo sapiens, UniProt P30542); assay: Radioligand binding assay, A1AR
T5 sequence (P30542 1-326): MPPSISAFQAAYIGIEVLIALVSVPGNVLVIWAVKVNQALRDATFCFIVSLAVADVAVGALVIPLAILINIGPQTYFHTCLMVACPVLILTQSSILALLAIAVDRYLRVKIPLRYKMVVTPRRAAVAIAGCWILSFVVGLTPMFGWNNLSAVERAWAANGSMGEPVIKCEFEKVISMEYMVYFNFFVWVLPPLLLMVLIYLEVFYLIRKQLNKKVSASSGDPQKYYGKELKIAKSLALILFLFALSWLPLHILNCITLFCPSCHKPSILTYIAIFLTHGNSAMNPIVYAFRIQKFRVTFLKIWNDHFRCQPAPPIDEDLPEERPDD

[7] = target: T3, human A2AAR; assay: Radioligand binding assay, A2AAR; details: for A2AAR activity class (Active/Inactive) in Fig. 2: summary of binding and functional data
[8] = target: T6, hAR subtype A3 in HEK293 cells (Homo sapiens, UniProt P0DMS8); assay: Functional cAMP assay, A3AR; assay type: cell-based
T6 construct: expressed in transfected cells
T6 sequence (P0DMS8 1-318): T2 sequence (P0DMS8 1-318)

[9] = tested on: adenosine deaminase; assay: A2AAR activity in absence and presence of adenosine deaminase; assay type: in vitro ADME; details: concluded qualitatively from A2AAR activity without and with adenosine deaminase
Description: For compounds 3 and 4, both binding and functional assays at the A2AAR were carried out (Fig. 2). Experiments were also performed for the A1, A2B, and A3 subtypes (Fig. S1 and Table S1 ^†).

[10] = target: T7, hAR subtype A1 in HEK293 cells (Homo sapiens, UniProt P30542); assay: Functional cAMP assay, A1AR; assay type: cell-based
T7 sequence (P30542 1-326): T5 sequence (P30542 1-326)

[11] = target: T8, hAR subtype A2B in HEK293 cells (Homo sapiens, UniProt P29275); assay: Functional cAMP assay, A2BAR; assay type: cell-based
T8 construct: expressed in transfected cells
T8 sequence (P29275 1-332): T4 sequence (P29275 1-332)

T1 sequence (P29274 whole entry): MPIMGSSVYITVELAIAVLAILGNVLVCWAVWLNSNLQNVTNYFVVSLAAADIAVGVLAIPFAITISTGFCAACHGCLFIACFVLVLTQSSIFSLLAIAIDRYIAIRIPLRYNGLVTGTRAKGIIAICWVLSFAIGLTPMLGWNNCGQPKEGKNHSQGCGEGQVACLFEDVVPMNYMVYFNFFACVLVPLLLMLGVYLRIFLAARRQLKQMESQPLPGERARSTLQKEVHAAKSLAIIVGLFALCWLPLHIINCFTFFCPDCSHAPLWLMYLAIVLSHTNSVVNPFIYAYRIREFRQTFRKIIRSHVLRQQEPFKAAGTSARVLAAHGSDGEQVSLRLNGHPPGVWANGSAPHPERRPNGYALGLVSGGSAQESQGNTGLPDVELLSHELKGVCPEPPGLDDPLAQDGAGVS
T3 sequence (P29274 whole entry): as above

Emax at 10 µM [1]: 20 ± 4%
Compound: Nc1nccc2c1ncn2[C@@H]1O[C@H](CO)[C@@H](O)[C@H]1O [Compound 2, 3-deazaadenosine]
% Inhibition at 10µM A3 [2]: 53 ± 11%
% Inhibition at 10µM A2A ([3]; 10 µM, ref Rodriguez et al.3): 24 ± 8%
A2AAR activity class (Active/Inactive) in Fig. 2 ([3]; summary of binding and functional data): Inactive
Ki ([3]; very low affinity): 39000 nM

inhibition at 10 µM [4]: 1 ± 1%
A2AAR agonist activity in words [1]: inactive
Emax at 10 µM [1]: 9 ± 1%
inhibition at 10 µM ([5]; read-out: % Inhibition at 10µM A3): 50 ± 2%
inhibition at 10 µM ([6]; read-out: % Inhibition at 10µM A1): 48 ± 17%
% Inhibition at 10µM A2A ([7]; 10 µM, radioligand binding, n=3): did not show significant displacement
inhibition at 10 µM ([7]; read-out: % Inhibition at 10µM A2A): 13 ± 1%
A2AAR activity class (Active/Inactive) in Fig. 2 [7]: Inactive
Compound: Cc1cnc(N)c2ncn(C3OC(CO)C(O)C3O)c12 (stereo not drawn) [Compound 3]

activation of A3 subtype in words [8]: activated
EC50 ([8]; cAMP, HEK293, n=3): 318 ± 66 nM
Emax ([8]; cAMP, HEK293, n=3, read-out: Maximum efficacy A3): 97 ± 4%
resistance to degradation by adenosine deaminase [9]: resistance
inhibition at 10 µM [4]: 29 ± 7%
A2AAR agonist activity in words [1]: full agonist
Emax at 10 µM [1]: 99 ± 3%
EC50 ([1]; cAMP production, HEK293, n=3): 732 nM
Ki [5]: 280 ± 27 nM
Ki [6]: 31 ± 4 nM
Ki [7]: 103 nM
A2AAR activity class (Active/Inactive) in Fig. 2 [7]: Active
activation of A1 subtype in words [10]: activated
EC50 ([10]; cAMP, HEK293, n=3): 180 ± 38 nM
Emax ([10]; cAMP, HEK293, n=3, read-out: Maximum efficacy A1): 101 ± 3%
activation of A2BAR in words [11]: not
Emax ([11]; cAMP, HEK293, n=3, read-out: Maximum efficacy A2B): < 15%
Compound: Nc1ncc(CO)c2c1ncn2C1OC(CO)C(O)C1O (stereo not drawn) [Compound 4]
